Measured values reported in US10508992B2, “Method and probe for monitoring oxygen status in live mammalian cells” (University College Cork, National University of Ir Cork, priority 2010, dated 2019).

Tested on: MEF cells
Settings: MEF cells loaded with probe 10 ug/ml, 12 h; different concentrations, added at 30 min, FIG. 6
Description: The plate was then measured on a Victor 2 reader as described in Example 4. Initially it was monitored for ˜30 min to reach O2 and temperature equilibrium and obtain basal signals, then quickly withdrawn from the reader, compounds were added to the cells (10 ul of 10× stock solution in each well) and monitoring was resumed. Measured TR-F intensity signals for each sample well were converted into phosphorescence lifetime (t) values and plotted. Control samples and repetitive additions were incorporated as appropriate.

SMILES: N#CC(C#N)=NNc1ccc(OC(F)(F)F)cc1 [FCCP]
- response of probe phosphorescence lifetime to stimulation: Increases in probe lifetime
